Source: ChEMBL document CHEMBL1156617, “Heme activates artemisinin more efficiently than hemin, inorganic iron, or hemoglobin” (Bioorg Med Chem, 2008)
Calls of active or inactive are those of the source. The calls are words filed in the database; no cut-off is given here.

What was measured:
[1] = Binding affinity to hemin in sodium acetate buffer at pH 5.0
[2] = Binding affinity to heme in sodium acetate buffer at pH 5.0
[3] = Binding affinity to heme in ammonium acetate buffer at pH 5.0 at 40 uM in presence of ferrocyanide
[4] = Binding affinity to oxyhemoglobin in phosphate buffer at pH 7.0 at room temperature over 24 hrs by spectrophotometry
[5] = Binding affinity to methemoglobin in phosphate buffer at pH 7.0 over 30 mins by spectrophotometry
[6] = Binding affinity to oxyhemoglobin in ammonium acetate buffer at pH 8.0 over 24 hrs by spectrophotometry
[7] = Binding affinity to oxyhemoglobin in phosphate buffer at pH 7.0 at 37 degC over 24 hrs by spectrophotometry
[8] = Binding affinity to methemoglobin in phosphate buffer at pH 5.0 over 30 mins by spectrophotometry

Structure (SMILES) | Activity [1] | Activity [2] | Activity [3] | Activity [4] | Activity [5] | Activity [6] | Activity [7] | Activity [8]
C[C@@H]1CC[C@H]2[C@@H](C)C(=O)O[C@@H]3O[C@@]4(C)CC[C@@H]1[C@]32OO4 | inactive | Dose-dependent effect | Active |  |  |  |  | 
C[C@H]1[C@H](OC(=O)CCC(=O)O)O[C@@H]2O[C@@]3(C)CC[C@H]4[C@H](C)CC[C@@H]1[C@@]24OO3 |  |  |  | inactive | inactive | inactive | inactive | inactive
